Results from patent publication US10214545B2, “Amido-substituted imidazopyridazines useful in the treatment of hyper-proliferative and/or angiogenesis disorders” (BAYER PHARMA AKTIENGESELLSCHAFT, priority 2014, dated 2019).

Key:
[1] = target: T1, human full-length MKNK1 (Homo sapiens (Human), UniProt Q9BUB5, T344D); assay: MKNK1 kinase assay (TR-FRET, 10 μM ATP); format: biochemical; conditions: 15 min preincubation, GST-MKNK1 (T344D)
Procedure: MKNK1-inhibitory activity of compounds of the present invention was quantified employing the MKNK1 TR-FRET assay as described in the following paragraphs. […] As substrate for the kinase reaction the biotinylated peptide biotin-Ahx-[…]
For the assay 50 nL of a 100 fold concentrated solution of the test compound in DMSO was pipetted into a black low volume 384 well microtiter plate (Greiner Bio-One, Frickenhausen, Germany), 2 μL of a solution of MKNK1 in aqueous assay buffer [50 mM HEPES pH 7.5, 5 mM magnesium chloride, 1.0 mM dithiothreitol, 0.005% (v/v) Nonidet-P40 (Sigma)] was added and the mixture was incubated for 15 min at 22° C. to allow pre-binding of the test compounds to the enzyme before the start of the kinase reaction. […] The concentration of MKNK1 was adjusted depending of the activity of the enzyme lot and was chosen appropriate to have the assay in the linear range, typical concentrations were in the range of 0.05 μg/mi. The reaction was stopped by the addition of 5 μL of a solution of TR-FRET detection reagents (5 nM streptavidine-XL665 [Cisbio Bioassays, Codolet, France] and 1 nM anti-ribosomal protein […] (pSer236)-antibody from Invitrogen [#44921G] and 1 nM LANCE EU-W1024 labeled ProteinG [Perkin-Elmer, product no. AD0071]) in an aqueous EDTA-solution (100 mM EDTA, 0.1% (w/v) bovine serum albumin in 50 mM HEPES pH 7.5).
(§1) The resulting mixture was incubated for 1 h at 22° C. to allow the formation of complex between the phosphorylated biotinylated peptide and the detection reagents. Subsequently the amount of phosphorylated substrate was evaluated by measurement of the resonance energy transfer from the Eu-chelate to the streptavidine-XL.

[2] = target: T1, human full-length MKNK1; assay: MKNK1 kinase high ATP assay (TR-FRET, 2 mM ATP); format: biochemical; conditions: 15 min preincubation, GST-MKNK1 (T344D)
Procedure: MKNK1-inhibitory activity at high ATP of compounds of the present invention after their preincubation with MKNK1 was quantified employing the TR-FRET-based MKNK1 high ATP assay as described in the following paragraphs.
As substrate for the kinase reaction the biotinylated peptide biotin-Ahx-[…]
For the assay 50 nL of a 100 fold concentrated solution of the test compound in DMSO was pipetted into a black low volume 384 well microtiter plate (Greiner Bio-One, Frickenhausen, Germany), 2 μL of a solution of MKNK1 in aqueous assay buffer [50 mM HEPES pH 7.5, 5 mM magnesium chloride, 1.0 mM dithiothreitol, 0.005% (v/v) Nonidet-P40 (Sigma)] was added and the mixture was incubated for 15 min at 22° C. to allow pre-binding of the test compounds to the enzyme before the start of the kinase reaction. Then the kinase reaction was started by the addition of 3 μL of a solution of adenosine-tri-phosphate (ATP, 3.3 mM=>final conc. in the 5 μL assay volume is 2 mM) and substrate (0.1 μM=>final conc. in the 5 μL assay volume is 0.06 μM) in assay buffer and the resulting mixture was incubated for a reaction time of 30 min at 22° C. The concentration of MKNK1 was adjusted depending of the activity of the enzyme lot and was chosen appropriate to have the assay in the linear range, typical concentrations were in the range of 0.003 μg/mL. The reaction was stopped by the addition of 5 μL of a solution of TR-FRET detection reagents (5 nM streptavidine-XL665 [Cisbio Bioassays, Codolet, France] and 1 nM anti-ribosomal protein S6 (pSer236)-antibody from Invitrogen [#44921G] and 1 nM LANCE EU-W1024 labeled ProteinG [Perkin-Elmer, product no. AD0071]) in an aqueous EDTA-solution (100 mM EDTA, 0.1% (w/v) bovine serum albumin in 50 mM HEPES pH 7.5).
as §1

T1 sequence (Q9BUB5 other isoform, or with tags, fused parts or gaps T344D): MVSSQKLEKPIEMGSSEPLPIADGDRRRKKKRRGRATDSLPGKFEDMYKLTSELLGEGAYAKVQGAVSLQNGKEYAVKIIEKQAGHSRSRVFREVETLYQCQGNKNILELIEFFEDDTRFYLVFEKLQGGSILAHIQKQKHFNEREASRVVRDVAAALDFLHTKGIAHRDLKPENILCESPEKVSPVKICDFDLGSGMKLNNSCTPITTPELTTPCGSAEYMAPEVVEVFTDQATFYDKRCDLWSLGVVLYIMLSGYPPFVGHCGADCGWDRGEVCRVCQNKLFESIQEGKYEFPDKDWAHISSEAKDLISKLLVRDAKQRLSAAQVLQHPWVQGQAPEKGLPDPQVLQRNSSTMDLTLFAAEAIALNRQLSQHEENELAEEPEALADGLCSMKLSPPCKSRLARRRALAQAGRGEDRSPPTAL

CN(C)CCN(C)C(=O)c1ccc2ncc(-c3cc4c(N5CCOCC5)nccc4o3)n2n1 [Example 3, N-[2-(dimethylamino)ethyl]-N-methyl-3-[4-(morpholin-4-yl)furo[3,2-c]pyridin-2-yl]imidazo[1,2-b]pyridazine-6-carboxamide]
IC50 [1]: 88 nM | IC50 [2]: 140 nM

CN1CCN(C(=O)c2ccc3ncc(-c4cc5c(N6CCOCC6)nccc5o4)n3n2)CC1 [Example 4, (4-Methylpiperazin-1-yl){3-[4-(morpholin-4-yl)furo[3,2-c]pyridin-2-yl]imidazo-[1,2-b]pyridazin-6-yl}methanone]
IC50 [1]: 110 nM | IC50 [2]: 280 nM

CN(C)CCCNC(=O)c1ccc2ncc(-c3cc4ccccc4o3)n2n1 [Example 10, 3-(1-Benzofuran-2-yl)-N-[3-(dimethylamino)propyl]imidazo[1,2-b]pyridazine-6-carboxamide]
IC50 [1]: 3.3 nM | IC50 [2]: 7.9 nM

C[C@H](CO)NC(=O)c1ccc2ncc(-c3cc4ccccc4o3)n2n1 [Example 11, 3-(1-Benzofuran-2-yl)-N-[(2R)-1-hydroxypropan-2-yl]imidazo[1,2-b]pyridazine-6-carboxamide]
IC50 [1]: 4.1 nM | IC50 [2]: 8.8 nM

COCCCNC(=O)c1ccc2ncc(-c3cc4ccccc4o3)n2n1 [Example 12, 3-(1-Benzofuran-2-yl)-N-(3-methoxypropyl)imidazo[1,2-b]pyridazine-6-carboxamide]
IC50 [1]: 4.9 nM | IC50 [2]: 9.5 nM

CC(C)[C@H](CO)NC(=O)c1ccc2ncc(-c3cc4ccccc4o3)n2n1 [Example 13, 3-(1-Benzofuran-2-yl)-N-[(2R)-1-hydroxy-3-methylbutan-2-yl]imidazo[1,2-b]-pyridazine-6-carboxamide]
IC50 [1]: 6.8 nM | IC50 [2]: 12 nM

O=C(NCc1ccccc1)c1ccc2ncc(-c3cc4ccccc4o3)n2n1 [Example 14, 3-(1-Benzofuran-2-yl)-N-benzylimidazo[1,2-b]pyridazine-6-carboxamide]
IC50 [1]: 5.2 nM | IC50 [2]: 12 nM

COCCNC(=O)c1ccc2ncc(-c3cc4ccccc4o3)n2n1 [Example 15, 3-(1-Benzofuran-2-yl)-N-(2-methoxyethyl)imidazo[1,2-b]pyridazine-6-carboxamide]
IC50 [1]: 8 nM | IC50 [2]: 15 nM

CN(Cc1ccccc1)C(=O)c1ccc2ncc(-c3cc4ccccc4o3)n2n1 [Example 16, 3-(1-Benzofuran-2-yl)-N-benzyl-N-methylimidazo[1,2-b]pyridazine-6-carboxamide]
IC50 [1]: 8.8 nM | IC50 [2]: 23 nM

CN(C)CCNC(=O)c1ccc2ncc(-c3cc4ccccc4o3)n2n1 [Example 17, 3-(1-Benzofuran-2-yl)-N-[2-(dimethylamino)ethyl]imidazo[1,2-b]pyridazine-6-carboxamide]
IC50 [1]: 1.7 nM | IC50 [2]: 34 nM

CC(C)[C@@H](CO)NC(=O)c1ccc2ncc(-c3cc4ccccc4o3)n2n1 [Example 18, 3-(1-Benzofuran-2-yl)-N-[(2S)-1-hydroxy-3-methylbutan-2-yl]imidazo[1,2-b]-pyridazine-6-carboxamide]
IC50 [1]: 1.3 nM | IC50 [2]: 42 nM
